Tests used:
[1] = tested on: Escherichia coli (E. coli, IFO 3301); assay: Minimum bactericidal concentration (disinfecting effect), 1 minute contact; assay type: cell-based; conditions: contact 1 minute, culture 37° C. 20 hours
Method: (§1) The disinfecting effect was evaluated in accordance with the following methods.
(§2) Seven microorganisms, i.e., Staphyrococcus aureus (S. aureus, ATCC 6538P), methicillin-resistant S. aureus (MRSA IID 1677), methicillin-resistant S. aureus (MRSA of a clinically isolated strain), Escherichia coli (E. coli, IFO 3301), Klebsiella pneumoniae (pneumoniae, IFO ATCC 4352), Pseudomonus aeruginosa (P. aeruginosa, IFO 3080) and Serratia marcescens (S. marcescens of a clinically isolated strain), were used for the test.
(§3) A test microorganism in an inoculating loop to streak a portion of 8 ml of a culture medium of soybean casein digest (SCD) on the surface and cultured at 37° C. for 18 hours. The obtained medium in an amount of 1 ml was diluted with the SCD culture medium to 1/10 of the original concentration. The diluted medium in an amount of 2 ml was brought into contact with 100 ml of the SCD culture medium. The obtained medium was cultured at 37° C. for 2 hours except that the medium containing P. aeruginosa was cultured for 4 hours and a liquid of a test microorganism was prepared. The liquid of a test microorganism contained 10^6 to 10^8 live microorganisms per 1 ml of the liquid.
(§4) A series of solutions containing a composition of a sterilizing disinfectant were prepared by dilution with a physiological saline in a manner such that each solution was diluted to one half the concentration to prepare a solution having the next lower concentration. The solutions of a series each in an amount of 10 ml were separately placed into test tubes, treated for disinfection in an autoclave and mixed with a liquid of a test microorganism in an amount of 0.1 ml. After the sterilizing disinfectant and the test microorganism were kept in contact with each other for 1 minute, the obtained liquid for inoculation in an amount of 0.1 ml was added to each of three SCD-LP (lecithin polysolvate) culture media (9 ml, each) which had been disinfected in advance. After the inoculated media were cultured at 37° C. for 20 hours, the presence or the absence of turbidity in the media was examined. When the medium was transparent, it was decided that no growth of the microorganism could be recognized and the result for this medium was expressed as −. When the medium was turbid, it was decided that growth of the microorganism could be recognized and the result for this medium was expressed as+. […] The minimum concentration of the composition of a sterilizing disinfectant which gave the result of − was used as the minimum bactericidal concentration (MBC).

[2] = tested on: Klebsiella pneumoniae (pneumoniae, IFO ATCC 4352); assay: as above; assay type: cell-based; conditions: K. pneumoniae; contact 1 minute; culture 37° C. 20 hours
Method: as §1, §2, §3, §4

[3] = tested on: Pseudomonus aeruginosa (P. aeruginosa, IFO 3080); assay: as above; assay type: cell-based; conditions: contact 1 minute, culture 37° C. 20 hours
Method: as §1, §2, §3, §4

[4] = tested on: Serratia marcescens (S. marcescens of a clinically isolated strain); assay: as above; assay type: cell-based; conditions: contact 1 minute, culture 37° C. 20 hours
Method: as §1, §2, §3, §4

[5] = tested on: Staphyrococcus aureus (S. aureus, ATCC 6538P); assay: as above; assay type: cell-based; conditions: contact 1 minute, culture 37° C. 20 hours
Method: as §1, §2, §3, §4

[6] = tested on: methicillin-resistant S. aureus (MRSA IID 1677); assay: as above; assay type: cell-based; conditions: contact 1 minute, culture 37° C. 20 hours
Method: as §1, §2, §3, §4

[7] = tested on: methicillin-resistant S. aureus (MRSA of a clinically isolated strain); assay: as above; assay type: cell-based; conditions: contact 1 minute, culture 37° C. 20 hours
Method: as §1, §2, §3, §4

[8] = Test of skin stimulation (sealed filter paper on inner side of left upper arm); assay type: in vivo, human; design: key to primary stimulation (skin stimulation): −: negative (no reaction); ±: rubedo alone; +: rubedo and humectation or papula; ++: rubedo, edema and marked papula or small blisters; conditions: for primary stimulation (skin stimulation): 0.02 ml, one per person
Method: The test of skin stimulation was conducted in accordance with the following method.
A sterilizing disinfectant in an amount of 0.02 ml was placed on a filter paper and attached to a portion at the inner side of the left upper arm of a person in a manner such that the paper was sealed. The test was conducted with five male persons (A to E) and five female persons (F to J). The primary stimulation was evaluated 30 minutes and 24 hours after the attachment of the paper and the result was classified into four levels. The criterion for the classification was as follows:
Criterion for the Classification
−: negative (no reaction)
+: rubedo and humectation or papula
++: rubedo, edema and marked papula or small blisters

| Substance | Minimum batericidal concentration [1] | Minimum batericidal concentration [2] | Minimum batericidal concentration [3] | Minimum batericidal concentration [4] | Minimum batericidal concentration [5] | Minimum batericidal concentration [6] | Minimum batericidal concentration [7] | primary stimulation (skin stimulation) ([8]; 30 minutes after attachment) | primary stimulation (skin stimulation) ([8]; 24 hours after attachment) | skin disorder ([8]; summary in words of the test of skin stimulation) |
| --- | --- | --- | --- | --- | --- | --- | --- | --- | --- | --- |
| benzalkonium chloride [Comparative Example 4] | 64 ppm | 64 ppm | 250 ppm | 64 ppm | 32 ppm | 32 ppm | 64 ppm | – | – | – |
| benzalkonium chloride [Comparative Example 5] | – | – | – | – | – | – | – | − and ± | + and ++ | marked skin disorder |

Reference: patent publication US20040062744A1, “Bactericidal disinfectant, antibacterial drug, and antibacterial material” (NICCA CHEMICAL CO., LTD., priority 2003, published 2004)
